This is an account of results in patent US3974140A, “Ureidoacetamido-penicillins” (Bayer Aktiengesellschaft, priority 1970, dated 1976).

What all share (experiment): MIC, liquid medium test tube series dilution test
For one assay, the system named is E. coli A 261. In kind it is cell-based. The settings on record: E. coli A 261, 24 hours, 37°C. Put shortly:
(§1)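 Penicillins were serially diluted in test tubes of complete liquid medium, inoculated, incubated 24 hours at 37°C, and inspected; the non-turbid tube of the series marked the minimum inhibitory concentration (units/ml).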

A further assay relates to E. coli 14. It counts as cell-based. The settings on record: E. coli 14, 24 hours, 37°C. Put shortly: as §1
The subject of the next assay is Klebsiella K 10. In kind it is cell-based. The settings on record: Klebsiella K 10, 24 hours, 37°C. Put shortly:
as §1

The subject of another assay is E. coli 183/58. It counts as cell-based. The settings on record: E. coli 183/58, 24 hours, 37°C. Summed up: as §1
Assay [1] deals with Streptoc. faec. ATCC 9790. It counts as cell-based. The settings on record: Strep. faec. (Enterococcus) ATCC 9790, 24 hours, 37°C. Put shortly:
as §1

The next assay deals with E. coli C 165. It counts as cell-based. The settings on record: E. coli C 165, 24 hours, 37°C. Summed up: as §1
A further assay relates to Klebsiella 63. It counts as cell-based. The settings on record: Klebsiella 63, 24 hours, 37°C. Put shortly: as §1
The next assay concerns Staph. aureus 1777 E. In kind it is cell-based, Staphylococcus aureus. The settings on record: 24 hours, 37°C. Put shortly: as §1
The next assay relates to Staph. aureus 133. In kind it is cell-based, Staphylococcus aureus. The settings on record: Staph. aureus 133, 24 hours, 37°C. Put shortly:
as §1

Another assay deals with Psdm. aerug. Bonn. In kind it is cell-based, Pseudomonas aerug. The settings on record: 24 hours, 37°C. Put shortly: as §1
For the next assay, the system named is Psdm. aerug. Walter. It counts as cell-based, Pseudomonas aerug. The settings on record: 24 hours, 37°C. Put shortly: as §1
The test system of the next assay is Proteus vulg. 1017. It counts as cell-based, Proteus vulgaris. The settings on record: Proteus vulg. 1017, 24 hours, 37°C. Summed up: as §1
In another assay the test system is Proteus vulg. 3400. It counts as cell-based, Proteus vulgaris. The settings on record: Proteus vulg. 3400, 24 hours, 37°C. Summed up: as §1

“And” between values parts separate entries of the source, which are not always exact repeats. Equal values may be shown once.

Turning to `CSc1ccc(C(NC(=O)N2CCNC2=O)C(=O)N[C@@H]2C(=O)N3[C@@H]2SC(C)(C)[C@@H]3C(=O)O)cc1` (stereo partly drawn) [Example 54, Sodium α-[(imidazolidin-2-on-1-yl)-carbonylamino]-4-methylthiobenzylpenicillin], the MIC against E. coli A 261 is recorded as above 400 units/ml; in the assay on E. coli 14 it was 6,25 units/ml; in the assay with Klebsiella K 10, 100 units/ml; in the assay on E. coli 183/58, 6,25 units/ml; in [1] it was 50 units/ml; against E. coli C 165, 25 units/ml. Besides, the MIC against Klebsiella 63 was 100 units/ml; with Staph. aureus 1777 E, 200 units/ml; against Staph. aureus 133, < 0,78 units/ml; in the assay with Psdm. aerug. Bonn, 12,5 units/ml; in the assay with Psdm. aerug. Walter, 25 units/ml; in the assay with Proteus vulg. 1017, 200 units/ml. Besides, the MIC in the assay with Proteus vulg. 3400 is on record as 100 units/ml.
As to `CSc1ccc(C(NC(=O)N2CCNC2=O)C(=O)N[C@@H]2C(=O)N3[C@@H]2SC(C)(C)[C@@H]3C(=O)O)cc1` (stereo partly drawn) [Example 55, Sodium α-[(imidazolidin-2-on-1-yl)-carbonylamino]-4-methylthiobenzylpenicillin], the MIC in the assay on E. coli A 261 is recorded as above 400 units/ml; against E. coli 14, 6,25 units/ml; against Klebsiella K 10, 100 units/ml; in the assay on E. coli 183/58, 12,5 units/ml; in assay [1], 50 units/ml; against E. coli C 165, 25 units/ml. Besides, the MIC in the assay with Klebsiella 63 is reported as 100 units/ml; in the assay on Staph. aureus 1777 E, 200 units/ml; against Staph. aureus 133, < 0,78 units/ml; against Psdm. aerug. Bonn, 12,5 units/ml; with Psdm. aerug. Walter, 25 units/ml; in the assay with Proteus vulg. 1017, 100 units/ml. Moreover, the MIC in the assay with Proteus vulg. 3400 stood at 100 units/ml.
As for `CCOC(=O)N(C)C(=O)N[C@@H](C(=O)N[C@@H]1C(=O)N2[C@@H]1SC(C)(C)[C@@H]2C(=O)O)c1ccccc1` [Example 61, Sodium D(-)-α-(3-ethoxycarbonyl-3-methyl-ureido)-benzylpenicillin], the MIC with E. coli A 261 is above 400 units/ml; with E. coli 14 it was 3.12 units/ml; against Klebsiella K 10 it was 100 units/ml; with E. coli 183/58, 6.25 units/ml; in assay [1] it was 50 units/ml; in the assay with E. coli C 165, 6.25 units/ml. The MIC against Klebsiella 63 was 50 units/ml; in the assay on Staph. aureus 1777 E it was 200 units/ml; with Staph. aureus 133, below 0.78 units/ml; against Psdm. aerug. Bonn, 12.5 units/ml; against Psdm. aerug. Walter, 25 units/ml; in the assay with Proteus vulg. 1017, 25 units/ml. For the same compound, in the assay with Proteus vulg. 3400, the MIC amounted to 25 units/ml.
Turning to `CN(C(=O)N[C@@H](C(=O)N[C@@H]1C(=O)N2[C@@H]1SC(C)(C)[C@@H]2C(=O)O)c1ccccc1)C(=O)C1CCCCC1` [Example 62], the MIC with E. coli A 261 was determined as 400 units/ml; against E. coli 14, 1.56 units/ml; in the assay with Klebsiella K 10, 100 units/ml; in the assay on E. coli 183/58, 3.12 units/ml; in assay [1], 100 units/ml; against E. coli C 165, 6.25 units/ml. Moreover, the MIC was 100 units/ml with Klebsiella 63; 400 units/ml against Staph. aureus 1777 E; below 0.78 units/ml in the assay on Staph. aureus 133; 12 units/ml and 12.5 units/ml against Psdm. aerug. Bonn; 25 units/ml against Psdm. aerug. Walter; 6.25 units/ml in the assay with Proteus vulg. 1017. In the assay on Proteus vulg. 3400, this compound registered an MIC of 6.25 units/ml.
As for `CN(C(=O)C=Cc1ccccc1)C(=O)N[C@@H](C(=O)N[C@@H]1C(=O)N2[C@@H]1SC(C)(C)[C@@H]2C(=O)O)c1ccccc1` [Example 63, Sodium D(-)-α-(3-cinnamoyl-3-methyl-ureido)-benzylpenicillin], the MIC against E. coli A 261 was 400 units/ml; against E. coli 14, below 0.78 units/ml; against Klebsiella K 10, 50 units/ml; against E. coli 183/58 it was below 0.78 units/ml; in assay [1], 50 units/ml; against E. coli C 165, 1.56 units/ml. Also, the MIC in the assay on Klebsiella 63 is listed as 50 units/ml; with Staph. aureus 1777 E, 200 units/ml; in the assay on Staph. aureus 133, below 0.78 units/ml; in the assay with Psdm. aerug. Bonn it was 6.25 units/ml; in the assay with Psdm. aerug. Walter, 12.5 units/ml; with Proteus vulg. 1017, 1.56 units/ml. Further, the MIC in the assay with Proteus vulg. 3400 amounted to 3.12 units/ml.
In the case of `CCCCOC(=O)N(C)C(=O)N[C@@H](C(=O)N[C@@H]1C(=O)N2[C@@H]1SC(C)(C)[C@@H]2C(=O)O)c1ccccc1` [Example 98, Sodium D(-)-α-(3-n-butoxycarbonyl-3-methyl-ureido)-benzylpenicillin], the MIC is above 400 units/ml against E. coli A 261; 3.12 units/ml against E. coli 14; 3.12 units/ml in the assay with E. coli 14 (listed as (B) of Example 28); 400 units/ml against Klebsiella K 10; 6.25 units/ml in the assay with E. coli 183/58; 6.25 units/ml with E. coli 183/58 (listed as (B) of Example 28). Further, the MIC is on record as 100 units/ml in [1]; 6.25 units/ml in the assay on E. coli C 165; 6.25 units/ml with E. coli C 165 (listed as (B) of Example 28); 400 units/ml in the assay on Klebsiella 63; 200 units/ml in the assay with Staph. aureus 1777 E; below 0.78 units/ml with Staph. aureus 133. Also, the MIC is below 0.78 units/ml against Staph. aureus 133 (listed as (B) of Example 28); 12.5 units/ml in the assay with Psdm. aerug. Bonn; 12.5 units/ml in the assay on Psdm. aerug. Bonn (listed as (B) of Example 28); 25 units/ml against Psdm. aerug. Walter; 25 units/ml with Psdm. aerug. Walter (listed as (B) of Example 28); 12.5 units/ml against Proteus vulg. 1017. Besides, the figures for the MIC in the assay on Proteus vulg. 1017 (listed as (B) of Example 28), against Proteus vulg. 3400 and against Proteus vulg. 3400 (listed as (B) of Example 28) were 12.5 units/ml, 25 units/ml and 25 units/ml, respectively.
As for `CNC(=O)N(C)C(=O)N[C@@H](C(=O)N[C@@H]1C(=O)N2[C@@H]1SC(C)(C)[C@@H]2C(=O)O)c1ccccc1` [Example 110, Sodium D(-)-α-(3-methylaminocarbonyl-3-methyl-ureido)-benzylpenicillin], the MIC in the assay with E. coli A 261 is recorded as 100-500 units/ml; in the assay with E. coli 14, 0.8-4 units/ml; in the assay on Klebsiella K 10 it was 4-20 units/ml; against E. coli 183/58, 4-20 units/ml; in [1] it was 4-20 units/ml; against E. coli C 165 it was 4-20 units/ml. Besides, the MIC in the assay on Klebsiella 63 is 4-20 units/ml; against Staph. aureus 1777 E, 20-100 units/ml; in the assay with Staph. aureus 133, 0.8 units/ml; in the assay with Psdm. aerug. Bonn, 20-100 units/ml; with Psdm. aerug. Walter, 20-100 units/ml; in the assay on Proteus vulg. 1017, 4-20 units/ml. The MIC in the assay on Proteus vulg. 3400 is 4-20 units/ml.
`CN(C(=O)N[C@@H](C(=O)N[C@@H]1C(=O)N2[C@@H]1SC(C)(C)[C@@H]2C(=O)O)c1ccccc1)C(=O)c1cc(Cl)ccc1Cl` [Example 111, Sodium D(-)-α-(3-[2,5-dichlorobenzoyl]-3-methyl-ureido)-benzylpenicillin]: the MIC against E. coli A 261 is recorded as 20-100 units/ml; against E. coli 14 it was below 0.8 units/ml; with Klebsiella K 10, 4-20 units/ml; in the assay on E. coli 183/58, below 0.8 units/ml; in assay [1] it was 4-20 units/ml; against E. coli C 165 it was 0.8-4 units/ml. Further, the MIC in the assay with Klebsiella 63 is recorded as 4-20 units/ml; in the assay on Staph. aureus 1777 E it was 4-20 units/ml; against Staph. aureus 133, 0.8 units/ml; in the assay with Psdm. aerug. Bonn, 4-20 units/ml; with Psdm. aerug. Walter, 4-20 units/ml; against Proteus vulg. 1017, 0.8-4 units/ml. Besides, the MIC against Proteus vulg. 3400 is 0.8-4 units/ml.
Consider `CN(C(=O)N[C@@H](C(=O)N[C@@H]1C(=O)N2[C@@H]1SC(C)(C)[C@@H]2C(=O)O)c1ccccc1)C(=O)c1ccc(Cl)cc1` [Example 112, Sodium D(-)-α-(3-p-chlorebenzoyl-3-methyl-ureido)-benzylpenicillin], for which the MIC against E. coli A 261 is listed as 20-100 units/ml; in the assay on E. coli 14, below 0.8 units/ml; with Klebsiella K 10, 4-20 units/ml; with E. coli 183/58, below 0.8 units/ml; in assay [1], 4-20 units/ml; with E. coli C 165 it was 0.8-4 units/ml. The MIC in the assay with Klebsiella 63 is reported as 4-20 units/ml; in the assay with Staph. aureus 1777 E, 20-100 units/ml; in the assay on Staph. aureus 133 it was 0.8 units/ml; in the assay on Psdm. aerug. Bonn, 4- 20 units/ml; in the assay on Psdm. aerug. Walter, 4-20 units/ml; in the assay with Proteus vulg. 1017, 0.8-4 units/ml. The MIC against Proteus vulg. 3400 is 0.8-4 units/ml.
